Experiment: gradient 5% acetonitrile 3 min, to 50% in 2 min, to 85% in 15 min, held 3 min, 100 µL/min
Conditions: column: Zorbax Extend-C18 2.1 x 50 mm; eluents: water / acetonitrile, 0.1% formic acid
Outline: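 Values are retention times taken from adduct peaks that software picked and an analyst inspected. The pure standards were run as mixtures of ~100 molecules on HPLC linked to a quadrupole time-of-flight mass spectrometer, in positive and negative ionization mode. A Zorbax Extend-C18 column (2.1 × 50 mm, 1.8 μm) was used at 100 μL/min with water and acetonitrile, each including 0.1% formic acid.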

SMILES	RP-LC retention time [s]
Cc1noc(C)c1-c1ccc(S(=O)(=O)Nc2ccc3c(c2)OCCO3)cc1	880
O=C(Nc1cccc([N+](=O)[O-])c1)C(=O)Nc1ccc2c(c1)N(C(=O)C1CC1)CCC2	883
COc1cccc(CN2CCc3nn(C)c(=O)n3CC2)n1	544
O=C(Nc1cccc(C(F)(F)F)c1)NC1CCN(c2ccccc2)C1=O (stereo unspecified)	926
O=C1NC(=S)S/C1=C\c1cc(Br)ccc1OCc1ccccc1Br	1270
CCN(CC)c1ncnc2c(-c3ccccc3)cn(CC(=O)N3CCCC3)c12	674
Cn1cnc(C(=O)N2CC(F)(F)C[C@H]2c2nc(C3CC3)no2)c1	667
O=C1CCc2cc(S(=O)(=O)N3CCCC3C(=O)N3CCN(c4ccccc4)CC3)ccc2N1 (stereo unspecified)	713
CC(=O)N1CCC2(CC1)OC(=O)C(C)=C2C(=O)NCCC1=CCCCC1	738
CCOC(=O)c1cc(C2CC2)nc2c1c(=O)n(Cc1cccc(Cl)c1)c(=O)n2C	1200
CCOC(=O)c1cc2c([nH]c1=O)CC(c1cccc(C)c1)CC2=O (stereo unspecified)	653
COc1ccc(N2CC(c3noc(-c4cc(F)cc(F)c4)n3)CC2=O)cc1OC (stereo unspecified)	899
O=C(CSc1ccc(N2CCCC(C(=O)NC3CC3)C2)nn1)NCc1cccs1 (stereo unspecified)	593
COc1cccc(OC)c1OCCNCC1COc2ccccc2O1 (stereo unspecified)	767
CC(C)NC(=O)N1CCCC(c2cccc(C(=O)NCCN3CCCCC3C)c2)C1 (stereo unspecified)	624
COC[C@@H]1CN(C(=O)c2cc(Cl)ccc2F)C[C@H]1C(N)=O	611

The remaining lines, values ahead:

RP-LC retention time [s]	SMILES
854	CC(C)NC(=O)N1CCCC(c2cccc(C(=O)NCc3ccccc3F)c2)C1 (stereo unspecified)
1090	Cc1ccc2c(c1)N(C(=O)Cn1ccc3ccn(Cc4ccccc4C)c3c1=O)CCO2
761	COc1ccc(CC(=O)Nc2nnc(C3CC(=O)N(c4ccc(Cl)cc4)C3)o2)cc1 (stereo unspecified)
589	O=C(NCC1CCCO1)c1c[nH]c2ncccc12 (stereo unspecified)
1010	O=S(=O)(Cc1ccccc1F)N1CC(c2nc(CCOCc3ccccc3)no2)C1
914	CC1CC(=O)N(CC(=O)Nc2ccc(F)cc2F)c2ccccc2S1 (stereo unspecified)
686	Cc1ccc(CNC(=O)c2cn3ccncc3n2)cc1
911	Cc1ccc(NC(=O)N2CCC(n3cnc4cc(Cl)ccc4c3=O)CC2)cc1C
682	CC(=O)Nc1ccc(-n2cnc(C(=O)N3CCN(c4ccc(C)cc4)CC3)c2)nc1
842	COc1cccc(CNC(=O)NCCC2CCN(S(=O)(=O)c3ccc(F)cc3)CC2)c1
1070	O=C(Cn1c(=O)sc2ccccc21)Nc1nc(-c2ccc(Br)cc2)cs1
949	COc1ccc2[nH]c3c(c2c1)CCN(C(=O)C1CC1)C3c1ccc(F)cc1 (stereo unspecified)
680	CCC(C(=O)Nc1cc(-c2cn3cccnc3n2)ccc1C)c1ccccc1 (stereo unspecified)
905	COCCN1C(=O)c2ccccc2C(C(=O)Nc2ccccc2OC)C12CCCC2 (stereo unspecified)
692	Cc1ccc(-n2nc(N3CCCC(C(=O)NCc4ccc(N(C)C)cc4)C3)ccc2=O)cc1Cl (stereo unspecified)
630	Cc1ccc(Cl)cc1NC(=O)Cn1ncc2c(N3CCN(c4ccccn4)CC3)ncnc21
719	CCC(C)Nc1nc(-c2ccc(C)cc2)nnc1C (stereo unspecified)
602	Cc1ccc(C)c(N2CCN(c3ccc(-c4nc(-c5cccc(F)c5)no4)cn3)CC2)c1
844	O=C(Nc1ccc2c(c1)CN(S(=O)(=O)Cc1ccccc1)CCO2)C1CC1
531	Cc1cc(=O)n(CC(=O)N2CCN(c3ccc(-c4ccccn4)nn3)CC2)cn1

Reference: the METLIN SMRT retention time set (Domingo-Almenara et al. 2019)
